Source: patent US20220282304A1, “SAME-SAMPLE ANTIBIOTIC SUSCEPTIBILITY TEST AND RELATED COMPOSITIONS, METHODS AND SYSTEMS” (CALIFORNIA INSTITUTE OF TECHNOLOGY, priority 2021, published 2022)

System: Escherichia coli K12
Assay: Digital same-sample filtration AST at two antibiotic concentrations (Example 13)
Type: cell-based
Conditions: for Both (number of wells) / Empty (number of wells) / Extracellular only (number of wells) / Intracellular only (number of wells): 19.0 to 21.2 minutes to centrifugation, 32 partitions, qPCR
Description: A 96-well microtiter plate was prepared for the experiment by placing Mueller-Hinton Broth (MHB) growth media and one of three different concentrations of ertapenem (ETP) sodium salt into each well. 32 of the wells contained 0 μg/mL of ETP antibiotic and served as reference condition antibiotic exposures; pure water was added instead of ETP dissolved in pure water. Another 32 of the wells contained 0.417 μg/mL of ETP (for a final concentration of 0.25 μg/mL). The last 32 wells contained 3.33 μg/mL of ETP (for a final concentration of 2.0 μg/mL). The 64 wells containing some ertapenem constituted the treated condition antibiotic exposures.
The inoculum was small enough that no detectable difference in the sample's optical density at 600 mm (OD600) was detectable by a spectrophotometer with a sensitivity of 0.01 absorbance units. After an incubation at 37° C., the media became turbid with an OD600 of 0.334 absorbance units after 3.5 hours of incubation.
In this experiment, the number and volume of sample partitions was restricted, for logistical reasons, to 96 partitions 25 μL in volume, specifically the wells of a 96-well plate. A target loading density of 0.5 cells per partition was set. The contrived clinical sample was diluted by a factor of 9.97239*10^−7 via a three-step serial dilution to an estimated density of […].
To begin the AST protocol, the diluted contrived clinical specimen was physically partitioned into the 96 samples by transferring 10 μL of the specimen, in 96 separate transfers (actually 8 transfers with a multichannel pipette), to each well of the 96-well microtiter plate containing ETP and MHB. Then, the entire plate was sealed with a RNase/DNase-free plastic, adhesive sealing membrane and placed on a thermal block set to 37° C. and shaking at 700 rpm.
After 8 minutes of incubation at 37° C., the exposures were taken back to the lab bench. The entire volume of each antibiotic exposure was transferred to a Millipore® 96-well sterile polystyrene MultiScreenHTS® filter plate (Millipore-Sigma MSGVS2210). Each well of the filter plate contained a hydrophilic polyvinylidene fluoride (PVDF) filter membrane with a […]. A 96-well polypropylene microtiter plate was affixed to the bottom of the filter plate. The filter plate was promptly centrifuged at 2200 relative centrifugal force for 5.0 minutes to speed the passage of the antibiotic exposure sample through the filter and into 96-well microtiter plate. The collected fluid was called the “filtrate.” In total, between 19.0 and 21.2 minutes elapsed between the first addition of cells to the exposure volume and the start of the centrifugation. The total time elapsed differed slightly among wells because cells could not be manually added to all wells at the exact same time.
8 μL of each filtrate was transferred to new containers containing 6 μL of Lucigen DNA Extraction Buffer, vortexed, centrifuged briefly to collect liquid at the bottom of the tube, and then heated for 6 minutes at 65° C. and then 4 minutes at 98° C.
After the creation of the filtrates, 30 μL of fresh MHB media was added to all filters. […] The purpose of this new volume of MHB was to wash away residual extracellular nucleic acids that might be confused for intracellular nucleic acids when the lysate was collected. The 30 μL of fresh MHB was centrifuged for 5 minutes at 2200 rcf into a clean 96-well plate, then discarded.
Next, 20 μL of DNA Extraction Buffer was placed into all of the wells of the filter plate, on top of the filters. The filter plate was heated to 65° C. for 6 minutes, without shaking, on a ThermoMixer® flat surface heating block. Intracellular nucleic acids were released from lysed cells into the DNA Extraction Buffer fluid. Then, the filter plate was taped to a clean 96-well polypropylene microtiter plate and centrifuged at 2200 rcf for 5 minutes. The DEB fluid that flowed through the filter was collected in the microtiter plate below the filter plate. […]

For `C[C@@H](O)[C@H]1C(=O)N2C(C(=O)O)=C(S[C@@H]3CN[C@H](C(=O)Nc4cccc(C(=O)O)c4)C3)[C@H](C)[C@H]12` [ETP, ertapenem], which susceptibility interpretation (2.0 μg/mL condition, more exposure time or more cells needed for a conclusive result) is on record?
The susceptibility interpretation was “more likely to be susceptible”.

What about the proportion of lysis (2.0 μg/mL condition, reference background 0/29) of the same molecule?
The proportion of lysis was 2/34.

And the “Intact (most likely number of cells)” value (Treated 0.25 μg ETP/mL)?
The value was 26.

And the “Lysed (most likely number of cells)” value (Treated 0.25 μg ETP/mL)?
The value was 0.

And the “Both (number of wells)” value (Treated 0.25 μg ETP/mL)?
The value was 0.

And the “Empty (number of wells)” value (Treated 0.25 μg ETP/mL)?
Its value is 15.

And the “Extracellular only (number of wells)” value (Treated 0.25 μg ETP/mL)?
Its value is 0.

What about the “Intracellular only (number of wells)” value (Treated 0.25 μg ETP/mL) of the same molecule?
The value was 17.

And the “Intact (most likely number of cells)” value (Treated 2.00 μg ETP/mL)?
The value was 32.

What about the “Lysed (most likely number of cells)” value (Treated 2.00 μg ETP/mL) of the same molecule?
The value was 2.

What about the “Both (number of wells)” value (Treated 2.00 μg ETP/mL) of the same molecule?
The value was 2.

And the “Empty (number of wells)” value (Treated 2.00 μg ETP/mL)?
Its value is 10.

What about the “Extracellular only (number of wells)” value (Treated 2.00 μg ETP/mL) of the same molecule?
Its value is 0.

And the “Intracellular only (number of wells)” value (Treated 2.00 μg ETP/mL)?
The value was 20.
